Assay results taken from patent publication US4971967A, “Quinolinecarboxylic acid derivatives, antibacterial compositions and use” (Kanebo Ltd, priority 1989, dated 1990).
Converted amounts (≈) assume the structure as drawn.

How the values were obtained:
[1] = test system: Staphylococcus aureus FDA 209P JC-1; test: Antibacterial activity (MIC), S. aureus FDA 209P JC-1; assay type: cell-based; conditions: FDA209P; Staphylococcus aureus FDA 209P JC-1, Gram +; read-out: Minimum inhibitory concentration (MIC)
Summary of the method: (§1)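 Read-out is the MIC, obtained by the standard Japan Society of Chemotherapy method from 1000 μg/ml standard solutions made in sterile water.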

[2] = test system: Staphylococcus aureus IID 803; test: Antibacterial activity (MIC), S. aureus IID 803; assay type: cell-based; conditions: IID803; Staphylococcus aureus IID 803, Gram +; read-out: Minimum inhibitory concentration (MIC)
Summary of the method: as §1

[3] = test system: Staphylococcus epidermidis IAM-1296; test: Antibacterial activity (MIC), S. epidermidis IAM-1296; assay type: cell-based; conditions: Staphylococcus epidermidis, IAM1296, Staphylococcus epidermidis IAM-1296, Gram +; read-out: Minimum inhibitory concentration (MIC)
Summary of the method: as §1

[4] = test system: Streptococcus faecalis IID 682; test: Antibacterial activity (MIC), Streptococcus faecalis IID 682; assay type: cell-based; conditions: Enterococcus faecalis, IID682, Streptococcus faecalis IID 682, Gram +; read-out: Minimum inhibitory concentration (MIC)
Summary of the method: as §1

[5] = test system: Bacillus subtilis ATCC 6633; test: Antibacterial activity (MIC), Bacillus subtilis ATCC 6633; assay type: cell-based; conditions: Bacillus subtilis, ATCC6633, Bacillus subtilis ATCC 6633, Gram +; read-out: Minimum inhibitory concentration (MIC)
Summary of the method: as §1

[6] = test system: Micrococcus luteus ATCC 9341; test: Antibacterial activity (MIC), Micrococcus luteus ATCC 9341; assay type: cell-based; conditions: ATCC9341; Micrococcus luteus ATCC 9341, Gram +; read-out: Minimum inhibitory concentration (MIC)
Summary of the method: as §1

[7] = test system: Escherichia coli NIHJ JC-2; test: Antibacterial activity (MIC), E. coli NIHJ JC-2; assay type: cell-based; conditions: NIHJJC2; Escherichia coli NIHJ JC-2, Gram -; read-out: Minimum inhibitory concentration (MIC)
Summary of the method: as §1

Escherichia coli KC-14 = test: Antibacterial activity (MIC), E. coli KC-14; assay type: cell-based; conditions: KC14; Escherichia coli KC-14, Gram -; read-out: Minimum inhibitory concentration (MIC)
Summary of the method: as §1

[8] = test system: Klebsiella pneumoniae PCI-602; test: Antibacterial activity (MIC), Klebsiella pneumoniae PCI-602; assay type: cell-based; conditions: PCI602; Klebsiella pneumoniae PCI-602, Gram -; read-out: Minimum inhibitory concentration (MIC)
Summary of the method: as §1

[9] = test system: Salmonella typhimurium IID 971; test: Antibacterial activity (MIC), Salmonella typhimurium IID 971; assay type: cell-based; conditions: Salmonella enterica; Salmonella typhimurium IID 971, Gram -; read-out: Minimum inhibitory concentration (MIC)
Summary of the method: as §1

Shigella sonnei EW-33 = test: Antibacterial activity (MIC), Shigella sonnei EW-33; assay type: cell-based; conditions: Shigella sonnei, EW33, Shigella sonnei EW-33, Gram -; read-out: Minimum inhibitory concentration (MIC)
Summary of the method: as §1

[10] = test system: Serratia marcescens IAM 1184; test: Antibacterial activity (MIC), Serratia marcescens IAM 1184; assay type: cell-based; conditions: Serratia marcescens, IAM1184, Serratia marcescens IAM 1184, Gram -; read-out: Minimum inhibitory concentration (MIC)
Summary of the method: as §1

[11] = test system: Pseudomonas aeruginosa IFO 3445; test: Antibacterial activity (MIC), P. aeruginosa IFO 3445; assay type: cell-based; conditions: Pseudomonas aeruginosa, IFO3445, Pseudomonas aeruginosa IFO 3445, Gram -; read-out: Minimum inhibitory concentration (MIC)
Summary of the method: as §1

[12] = test system: Pseudomonas aeruginosa NCTC 10490; test: Antibacterial activity (MIC), P. aeruginosa NCTC 10490; assay type: cell-based; conditions: Pseudomonas aeruginosa, NCTC10490, Pseudomonas aeruginosa NCTC 10490, Gram -; read-out: Minimum inhibitory concentration (MIC)
Summary of the method: as §1

[13] = test system: Pseudomonas aeruginosa E-2; test: Antibacterial activity (MIC), P. aeruginosa E-2; assay type: cell-based; conditions: E2; Pseudomonas aeruginosa E-2, Gram -; read-out: Minimum inhibitory concentration (MIC)
Summary of the method: as §1

[14] = test system: Morganella morganii IFO 3848; test: Antibacterial activity (MIC), Morganella morganii IFO 3848; assay type: cell-based; conditions: Morganella morganii, IFO3848, Morganella morganii IFO 3848, Gram -; read-out: Minimum inhibitory concentration (MIC)
Summary of the method: as §1

Proteus vulgaris OX-19 = test: Antibacterial activity (MIC), Proteus vulgaris OX-19; assay type: cell-based; conditions: OX19; Proteus vulgaris OX-19, Gram -; read-out: Minimum inhibitory concentration (MIC)
Summary of the method: as §1

[15] = test system: Proteus mirabilis IFO 3849; test: Antibacterial activity (MIC), Proteus mirabilis IFO 3849; assay type: cell-based; conditions: IFO3849; Proteus mirabilis IFO 3849, Gram -; read-out: Minimum inhibitory concentration (MIC)
Summary of the method: as §1

[16] = test system: Enterobacter aerogenes ATCC 13048; test: Antibacterial activity (MIC), Enterobacter aerogenes ATCC 13048; assay type: cell-based; conditions: Klebsiella aerogenes, ATCC13048; Enterobacter aerogenes ATCC 13048, Gram -; read-out: Minimum inhibitory concentration (MIC)
Summary of the method: as §1

Enterobacter cloacae 963 = test: Antibacterial activity (MIC), Enterobacter cloacae 963; assay type: cell-based; conditions: Enterobacter cloacae, 963, Enterobacter cloacae 963, Gram -; read-out: Minimum inhibitory concentration (MIC)
Summary of the method: as §1

[17] = test system: Citrobacter freundii NIHJ 10018-68; test: Antibacterial activity (MIC), Citrobacter freundii NIHJ 10018-68; assay type: cell-based; conditions: Citrobacter freundii, NIHJ10018, Citrobacter freundii NIHJ 10018-68, Gram -; read-out: Minimum inhibitory concentration (MIC)
Summary of the method: as §1

[18] = test system: Acinetobacter calcoaceticus AC 54; test: Antibacterial activity (MIC), Acinetobacter calcoaceticus AC 54; assay type: cell-based; conditions: AC54; Acinetobacter calcoaceticus AC 54, Gram -; read-out: Minimum inhibitory concentration (MIC)
Summary of the method: as §1

[19] = test system: Staphylococcus aureus IID 803; test: Effect on treatment of general infectious disease, S. aureus IID 803 (Experiment 4); assay type: in vivo, ddY male mice infected with Staphylococcus aureus; conditions: IID803, 168 h, oral, 1 h after i.p. infection, 2.1×10^7 CFU/mouse, survival after one week
Experimental: (§2) The test microorganisms were subjected to standing culture in Trypto-Soya Agar "Nissui" (made by Nissui Seiyaku K.K., Japan) at 37° C. for 16 to 18 hours. The culture was then diluted with PBS (Dulbecco's phosphate buffered saline) and mixed with an equivalent amount of 10% (w/v) Mucin (BACTO MUCIN BACTERIOLOGICAL, made by Difco Co.) to prepare a microorganism solution. The thus prepared microorganism solution (0.5 ml each) was intraperitoneally inoculated to ddY male mice (5 weeks age, weighing 25-28 g, 5 mice in each group), to infect the animals. One hour after the infection, the compound (A) or (J) of the present invention or the known compound (X) suspended in 1% (w/v) aqueous gum arabic or the known compound (Y) dissolved in sterilized distilled water was orally adiministered to mice.
(§3) The mice were daily observed for one week, and from the survival number of mice after one week, the 50% effective dose (ED50) was calculated by Weil method.
Staphylococcus aureus IID 803 (2.1×10^7 CFU/mouse)
(§4) The procedure of Experiment 3 was repeated except that ddY male mice weighing 24 to 28 g were employed.

[20] = test system: Pseudomonas aeruginosa E-2; test: Effect on treatment of general infectious disease, P. aeruginosa E-2 (Experiment 4); assay type: in vivo, ddY male mice infected with Pseudomonas aeruginosa; conditions: E2, 168 h, oral, 1 h after i.p. infection, 3.4×10^4 CFU/mouse, survival after one week
Experimental: as §2, §3
Pseudomonas aeruginosa E-2 (3.4×10^4 CFU/mouse)
as §4

[21] = Acute toxicity (LD50) (Experiment 6); conditions: mouse, in vivo; oral, mice fasted 18 hours, observed for a week
Experimental: (§5) The compound (O) or (P) of the present invention was suspended in sterilized distilled water to prepare a suspension. The suspension was orally adminstered to ddY male mice (5 weeks age, weighing 20 to 25 g, 5 mice in each group), which had been fasted for 18 hours.

infection = test: Protective effects against infection (Experiments 3 and 4); assay type: in vivo, ddY male mice; conditions: result in words
Experimental: as §2, §3, §4

[22] = Low toxicity (Experiments 5 and 6); assay type: in vivo, ddY male mice; conditions: result in words
Experimental: The compound (A) or (J) of the present invention was suspended in 1% (w/v) aqueous gum arabic to prepare a suspension in concentration of 100 mg/ml. The suspension was orally administered to ddY male mice (5 weeks age, weighing 20 to 25 g, 5 mice in each group), which had been fasted for 18 hours, at a rate of 2000 mg/kg body weight of the compound (A) or (J).
as §5

CC1CN(c2c(F)cc3c(=O)c(C(=O)O)c4scc5n4c3c2N(C)C5)CC(C)N1C (stereo not drawn) [Compound (P), 9,1-(Methylimino)methano-7-fluoro-8-(3,4,5-trimethyl-1-piperazinyl)-5-oxo-5H-thiazolo[3,2-a]quinoline-4-carboxylic acid]
MIC [1]: 0.025 µg/mL (≈ 0.0581 µM)
MIC [2]: 0.025 µg/mL (≈ 0.0581 µM)
MIC [3]: 0.1 µg/mL (≈ 0.232 µM)
MIC [4]: 0.2 µg/mL (≈ 0.465 µM)
MIC [5]: 0.006 µg/mL (≈ 0.0139 µM)
MIC [6]: 0.39 µg/mL (≈ 0.906 µM)
MIC [7]: 0.1 µg/mL (≈ 0.232 µM)
MIC (Escherichia coli KC-14): 0.1 µg/mL (≈ 0.232 µM)
MIC [8]: 0.006 µg/mL (≈ 0.0139 µM)
MIC [9]: 0.39 µg/mL (≈ 0.906 µM)
MIC (Shigella sonnei EW-33): 0.05 µg/mL (≈ 0.116 µM)
MIC [10]: 1.56 µg/mL (≈ 3.62 µM)
MIC [11]: 3.13 µg/mL (≈ 7.27 µM)
MIC [12]: 1.56 µg/mL (≈ 3.62 µM)
MIC [13]: 1.56 µg/mL (≈ 3.62 µM)
MIC [14]: 0.39 µg/mL (≈ 0.906 µM)
MIC (Proteus vulgaris OX-19): 0.1 µg/mL (≈ 0.232 µM)
MIC [15]: 0.78 µg/mL (≈ 1.81 µM)
MIC [16]: 0.2 µg/mL (≈ 0.465 µM)
MIC (Enterobacter cloacae 963): 0.2 µg/mL (≈ 0.465 µM)
MIC [17]: 1.56 µg/mL (≈ 3.62 µM)
MIC [18]: 0.025 µg/mL (≈ 0.0581 µM)
ED50 [19]: 1.9 mg/kg
ED50 [20]: 11.1 mg/kg
LD50 at 168 h [21]: 1070 mg/kg
protective effects against infection (infection): excellent protective effects against infection
toxicity [22]: low toxicity
